1 compound from patent US10946027B2, “Tianeptine oxalate salts and polymorphs” (Tonix Pharma Holdings Limited, priority 2016, dated 2021) can be followed below.

Where two headings read alike, the source gives them in different places.

Take `CN1c2ccccc2C(NCCCCCCC(=O)O)c2ccc(Cl)cc2S1(=O)=O.O=C(O)C(=O)O` (centres unmarked) [Tianeptine mono-oxalate Form A, Tianeptine Mono-Oxalate Form A]: the solid form stability entry is reported as “started to convert into tianeptine hemi-oxalate Form A” (40-60° C., high humidity (75% RH)); “stable” (milled without water); “stable” (stored at 25° C. and 60-75% RH); “stable” (stored at 40-60° C. without humidity (RH≈0%)); “started to convert into tianeptine hemi-oxalate Form A” (water kneading).
